Data on three molecules can be found in publication PMC4742970 (Nature Communications, 2016).

In data set [1] the target is T1, Msh2–Msh3 (Msh2HA–Msh3) (Saccharomyces cerevisiae, UniProt P25336+P25847).
T1 construct: heterodimer overexpressed in and purified from yeast; labelled with anti-HA quantum dots in single-molecule tests
T1 sequence (P25847 1-964): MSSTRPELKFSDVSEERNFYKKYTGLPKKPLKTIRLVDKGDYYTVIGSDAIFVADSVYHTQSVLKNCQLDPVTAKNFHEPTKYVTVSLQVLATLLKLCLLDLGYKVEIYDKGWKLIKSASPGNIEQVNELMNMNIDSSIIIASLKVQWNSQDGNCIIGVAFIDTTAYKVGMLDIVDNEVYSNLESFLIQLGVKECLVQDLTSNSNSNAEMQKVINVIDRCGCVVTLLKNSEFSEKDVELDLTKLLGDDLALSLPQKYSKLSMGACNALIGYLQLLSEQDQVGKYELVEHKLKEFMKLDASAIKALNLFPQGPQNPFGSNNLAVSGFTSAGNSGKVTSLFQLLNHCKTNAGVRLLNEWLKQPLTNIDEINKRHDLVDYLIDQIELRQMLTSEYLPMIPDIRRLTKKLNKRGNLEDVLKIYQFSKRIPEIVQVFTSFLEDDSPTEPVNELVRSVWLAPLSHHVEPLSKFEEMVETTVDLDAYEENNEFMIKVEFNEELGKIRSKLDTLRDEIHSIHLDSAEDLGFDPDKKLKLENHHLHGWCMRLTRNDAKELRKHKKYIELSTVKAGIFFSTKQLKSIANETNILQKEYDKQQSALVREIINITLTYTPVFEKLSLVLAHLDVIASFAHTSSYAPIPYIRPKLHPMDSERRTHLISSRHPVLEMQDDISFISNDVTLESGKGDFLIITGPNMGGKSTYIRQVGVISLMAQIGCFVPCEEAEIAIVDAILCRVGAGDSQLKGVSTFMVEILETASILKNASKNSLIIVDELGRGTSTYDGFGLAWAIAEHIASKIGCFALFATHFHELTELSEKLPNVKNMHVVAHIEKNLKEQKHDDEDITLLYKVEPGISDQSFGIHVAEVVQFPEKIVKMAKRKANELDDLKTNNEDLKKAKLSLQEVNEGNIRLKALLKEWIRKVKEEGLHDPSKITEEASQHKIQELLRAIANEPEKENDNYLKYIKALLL
T1 sequence (P25336 1-1018): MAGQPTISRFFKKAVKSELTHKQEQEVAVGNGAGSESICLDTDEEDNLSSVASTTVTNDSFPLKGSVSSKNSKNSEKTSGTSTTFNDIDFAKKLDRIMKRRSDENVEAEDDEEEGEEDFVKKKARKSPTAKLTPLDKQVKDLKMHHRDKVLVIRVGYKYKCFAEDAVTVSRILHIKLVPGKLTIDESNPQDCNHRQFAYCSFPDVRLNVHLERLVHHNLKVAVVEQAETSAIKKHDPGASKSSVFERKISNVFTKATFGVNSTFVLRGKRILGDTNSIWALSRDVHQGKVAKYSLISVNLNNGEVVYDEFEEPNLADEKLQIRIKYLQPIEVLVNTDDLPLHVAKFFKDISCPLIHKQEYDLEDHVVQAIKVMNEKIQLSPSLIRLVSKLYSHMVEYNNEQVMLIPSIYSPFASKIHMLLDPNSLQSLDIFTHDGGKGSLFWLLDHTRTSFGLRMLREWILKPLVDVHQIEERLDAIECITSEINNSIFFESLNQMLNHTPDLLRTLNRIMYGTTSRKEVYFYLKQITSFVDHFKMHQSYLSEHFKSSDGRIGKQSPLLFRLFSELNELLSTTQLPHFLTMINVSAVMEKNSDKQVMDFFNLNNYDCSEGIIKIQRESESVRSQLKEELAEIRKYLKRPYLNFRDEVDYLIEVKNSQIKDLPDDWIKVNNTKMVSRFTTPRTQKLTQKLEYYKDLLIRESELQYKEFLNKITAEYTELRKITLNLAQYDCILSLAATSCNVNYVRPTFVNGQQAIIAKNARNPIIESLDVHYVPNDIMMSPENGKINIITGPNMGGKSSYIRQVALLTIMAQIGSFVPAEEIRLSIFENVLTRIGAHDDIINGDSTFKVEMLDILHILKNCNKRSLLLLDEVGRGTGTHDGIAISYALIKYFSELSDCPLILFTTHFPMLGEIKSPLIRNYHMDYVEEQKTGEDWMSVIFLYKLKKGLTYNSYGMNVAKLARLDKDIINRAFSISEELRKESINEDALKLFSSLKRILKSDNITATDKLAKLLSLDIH
Description: single-molecule diffusion on DNA curtains (TIRF). The format is binding. The settings on record: 1 mM ADP, 50 mM NaCl, 40 mM Tris-HCl pH 8; functional effect on diffusion along homoduplex DNA.

The target of data set [2] is T1, Msh2–Msh3 (Msh2HA–Msh3). Description: ATPase assay, gamma-32P-ATP, PEI-cellulose TLC. The data set is classed as biochemical. The settings on record: 20-250 μM ATP, 2 mM MgCl2, pH 7.5, 30 °C, 100 nM protein, with or without 2 μM DNA.
The target of a further data set is Msh2(HA)-Msh3 (Saccharomyces cerevisiae, UniProt P25847;P25336 1-964;1-1018). Description: EMSA; no antibody or QD; EMSA: 20 mM HEPES pH 7.5, 100 mM NaCl, 1 mM DTT, 40 ug/ml BSA, 2 mM MgCl2, RT; curtains: 40 mM Tris-HCl pH 8, 25-150 mM NaCl, 2 mM MgCl2, 1-2 mM DTT, 0.2 mg/ml. A general note: In EMSA bound probe runs differently from free probe, usually more slowly.

`Nc1ncnc2c1ncn2[C@@H]1O[C@H](COP(=O)(O)OP(=O)(O)O)[C@@H](O)[C@H]1O` [ADP]: the “single-molecule diffusion on DNA curtains (TIRF)” value on Msh2–Msh3 (Msh2HA–Msh3) [1] was “Here we show that ADP and ATP also alter the interactions of the yeast Msh2–Msh3”.
Consider `Nc1ncnc2c1ncn2[C@@H]1O[C@H](COP(=O)(O)OP(=O)(O)OP(=O)(O)O)[C@@H](O)[C@H]1O` [ATP], for which, at Msh2–Msh3 (Msh2HA–Msh3) [2], the “ATPase assay, gamma-32P-ATP, PEI-cellulose TLC” value is “Gel shift and ATPase assays indicated that the QD-tagged Msh2–Msh3 retained biochemical activities”.

B1: 3'-ssDNA flap LS1/LS3/LS16 (mixed)
DNA 1: CACGCTACCGAATTCTGACTTGCTAGGACATCTTTGCCCACGTTGACCC
DNA 2: TCGATAGTCTCTAGATAGCATGTCCTAGCAAGTCAGAATTCGGTAGCGTG
DNA 3: GCTATCTAGAGACTATCGA
For the molecule B1, in the data set with Msh2(HA)-Msh3, the binding result was “binds”.
